Measurements published in article PMC6691788, “Design and synthesis of phthalazine-based compounds as potent anticancer agents with potential antiangiogenic activity via VEGFR-2 inhibition” (Journal of Enzyme Inhibition and Medicinal Chemistry, 2019).

Experiments:
Test in all cases: NCI 60 cell panel SRB screen
PC-3 = type: cell-based; settings: Homo sapiens; for activity at 10 µM: PC-3, single dose 10 μM, read-out: percent cell growth promotion
HCC-2998 = type: cell-based; settings: Homo sapiens; for activity at 10 µM: HCC-2998, single dose 10 μM, read-out: percent cell growth promotion
MALME-3M = type: cell-based; settings: Homo sapiens; for activity at 10 µM: read-out: percent cell growth promotion
SR = type: cell-based; settings: Homo sapiens; for activity at 10 µM: single dose 10 μM, read-out: percent cell growth promotion
SNB-19 = type: cell-based; settings: Homo sapiens; for activity at 10 µM: SNB-19, single dose 10 μM, read-out: percent cell growth promotion
HCT-15 = type: cell-based; settings: Homo sapiens; for activity at 10 µM: HCT-15, single dose 10 μM, read-out: percent cell growth promotion
NCI-H226 = type: cell-based; settings: Homo sapiens; for activity at 10 µM: NCI-H226, single dose 10 μM, read-out: percent cell growth promotion
SK-MEL-28 = type: cell-based; settings: Homo sapiens; for activity at 10 µM: SK-MEL-28, read-out: percent cell growth promotion
COLO 205 = type: cell-based; settings: Homo sapiens; for activity at 10 µM: COLO 205, single dose 10 μM, read-out: percent cell growth promotion
HOP-62 = type: cell-based; settings: Homo sapiens; for activity at 10 µM: HOP-62, single dose 10 μM, read-out: percent cell growth promotion
RXF 393 = type: cell-based; settings: Homo sapiens; for activity at 10 µM: RXF 393, single dose 10 μM, read-out: percent cell growth promotion
CAKI-1 = type: cell-based, human; settings: for activity at 10 µM: CAKI-1, single dose 10 μM, read-out: percent cell growth promotion
OVCAR-8 = type: cell-based; settings: Homo sapiens; for activity at 10 µM: OVCAR-8, single dose 10 μM, read-out: percent cell growth promotion
DU-145 = type: cell-based; settings: Homo sapiens; for activity at 10 µM: DU-145, single dose 10 μM, read-out: percent cell growth promotion
786-0 = type: cell-based; settings: Homo sapiens; for activity at 10 µM: 786-0, single dose 10 μM, read-out: percent cell growth promotion
HL-60(TB) = type: cell-based; settings: Homo sapiens; for activity at 10 µM: single dose 10 μM, read-out: percent cell growth promotion
M14 = type: cell-based; settings: Homo sapiens; for activity at 10 µM: M14, read-out: percent cell growth promotion
BT-549 = type: cell-based; settings: Homo sapiens
A498 = type: cell-based; settings: Homo sapiens; for activity at 10 µM: A498, single dose 10 μM, read-out: percent cell growth promotion
[1] = 5 log dose, 48 h, read-out: LC50 (the source's name)

## Cc1nnc(N2CCN(c3ccccn3)CC2)c2ccccc12 [Compound 8i, 1-Methyl-4–(4-(pyridin-2-yl)piperazin-1-yl)phthalazine]
PC-3
  activity at 10 µM: 100%
HCC-2998
  activity at 10 µM: 102%
MALME-3M; Malme-3M
  activity at 10 µM: 107%
SR
  activity at 10 µM: 92.1%
SNB-19
  activity at 10 µM: 101%
HCT-15
  activity at 10 µM: 90.3%
NCI-H226
  activity at 10 µM: 98.7%
SK-MEL-28
  activity at 10 µM: 101%
COLO 205
  activity at 10 µM: 113%
HOP-62
  activity at 10 µM: 99.8%
RXF 393
  activity at 10 µM: 98.6%
CAKI-1; Homo sapiens
  activity at 10 µM: 94.8%
OVCAR-8
  activity at 10 µM: 98.9%
DU-145
  activity at 10 µM: 111%
786-0
  activity at 10 µM: 92.4%
HL-60(TB)
  activity at 10 µM: 108%
M14
  activity at 10 µM: 98.6%

## O=C(Nc1ccccc1)Nc1ccc(Oc2nnc(Cl)c3ccccc23)cc1 [Compound 13a, 1–(4-(4-Chlorophthalazin-1-yloxy)phenyl)-3-phenylurea]
BT-549; BT-549
  GI50: 3.06 µM
BT-549; BT-549, read-out: TGI
  IC (TGI): 10.8 µM
BT-549; BT-549, read-out: percent cell growth promotion
  activity at 10 µM: 47.7%
BT-549; BT-549, 5 log dose, 48 h, read-out: LC50 (the source's name)
  CC50: > 25 µM
PC-3; PC-3, 5 log dose
  GI50: 3.26 µM
  IC (TGI): 10.6 µM
PC-3; PC-3, 5 log dose, 48 h, read-out: LC50 (the source's name)
  CC50: > 25 µM
PC-3
  activity at 10 µM: 25.9%
HCC-2998; HCC-2998, 5 log dose
  GI50: 4.2 µM
  IC (TGI): 12.2 µM
HCC-2998; HCC-2998, 5 log dose, 48 h
  LC50 (50% lethal concentration): > 25 µM
HCC-2998
  activity at 10 µM: 52.9%
MALME-3M; Malme-3M
  GI50: 1.62 µM
  activity at 10 µM: -29.6%
MALME-3M; Malme-3M, read-out: TGI
  IC (TGI): 5.93 µM
MALME-3M; MALME-3M, 5 log dose, 48 h, read-out: LC50 (the source's name)
  CC50: 16 µM
A498; A498, 5 log dose
  GI50: 3.45 µM
  IC (TGI): 13.1 µM
A498; A498, 5 log dose, 48 h, read-out: LC50 (the source's name)
  CC50: > 25 µM
A498
  activity at 10 µM: 49.2%
SR; 5 log dose
  GI50: 1.93 µM
  IC (TGI): 8.26 µM
SR; [1]
  CC50: > 25 µM
SR
  activity at 10 µM: 18%
SNB-19; SNB-19, 5 log dose
  GI50: 1.67 µM
  IC (TGI): 8.46 µM
SNB-19; SNB-19, 5 log dose, 48 h, read-out: LC50 (the source's name)
  CC50: > 25 µM
SNB-19
  activity at 10 µM: 9.64%
HCT-15; HCT-15, 5 log dose
  GI50: 3.54 µM
  IC (TGI): 12.9 µM
HCT-15; HCT-15, 5 log dose, 48 h, read-out: LC50 (the source's name)
  CC50: > 25 µM
HCT-15
  activity at 10 µM: 36.4%
NCI-H226; NCI-H226, 5 log dose
  GI50: 1.95 µM
  IC (TGI): 9.25 µM
NCI-H226; NCI-H226, 5 log dose, 48 h, read-out: LC50 (the source's name)
  CC50: > 25 µM
NCI-H226
  activity at 10 µM: 8.66%
SK-MEL-28; SK-MEL-28
  GI50: 3.57 µM
SK-MEL-28; SK-MEL-28, read-out: TGI
  IC (TGI): 12.7 µM
SK-MEL-28
  activity at 10 µM: 44.2%
SK-MEL-28; SK-MEL-28, 5 log dose, 48 h, read-out: LC50 (the source's name)
  CC50: > 25 µM
COLO 205; COLO 205, 5 log dose
  GI50: 5.24 µM
  IC (TGI): > 25 µM
COLO 205; COLO 205, 5 log dose, 48 h, read-out: LC50 (the source's name)
  CC50: > 25 µM
COLO 205
  activity at 10 µM: 35.1%
HOP-62; HOP-62, 5 log dose
  GI50: 2.52 µM
  IC (TGI): 65.4 µM
HOP-62; HOP-62, 5 log dose, 48 h, read-out: LC50 (the source's name)
  CC50: 17 µM
HOP-62
  activity at 10 µM: -43.4%
RXF 393; RXF 393, 5 log dose
  GI50: 2.69 µM
  IC (TGI): 6.24 µM
RXF 393; RXF 393, 5 log dose, 48 h, read-out: LC50 (the source's name)
  CC50: 14.5 µM
RXF 393
  activity at 10 µM: -3.63%
CAKI-1; CAKI-1, 5 log dose
  TGI: 14.3 µM
CAKI-1; Homo sapiens, CAKI-1, 5 log dose
  GI50: 3.34 µM
CAKI-1; Homo sapiens, CAKI-1, 5 log dose, 48 h, read-out: LC50 (the source's name)
  CC50: > 25 µM
CAKI-1; Homo sapiens
  activity at 10 µM: 84.4%
OVCAR-8; OVCAR-8, 5 log dose
  GI50: 2.6 µM
  IC (TGI): 6.53 µM
OVCAR-8; OVCAR-8, 5 log dose, 48 h, read-out: LC50 (the source's name)
  CC50: 16.4 µM
OVCAR-8
  activity at 10 µM: 15.5%
DU-145; DU-145, 5 log dose
  GI50: 3.01 µM
  IC (TGI): 10.5 µM
DU-145; DU-145, 5 log dose, 48 h, read-out: LC50 (the source's name)
  CC50: > 25 µM
DU-145
  activity at 10 µM: 39%
786-0; 786-0, 5 log dose
  GI50: 3.6 µM
  IC (TGI): 8.18 µM
786-0; 786-0, 5 log dose, 48 h, read-out: LC50 (the source's name)
  CC50: 18.6 µM
786-0
  activity at 10 µM: 38.2%
HL-60(TB); 5 log dose
  GI50: 2.7 µM
  IC (TGI): > 25 µM
HL-60(TB); [1]
  CC50: > 25 µM
HL-60(TB)
  activity at 10 µM: 12.1%
M14; M14
  GI50: 6.15 µM
M14; M14, read-out: TGI
  IC (TGI): > 25 µM
M14
  activity at 10 µM: 46.2%
M14; M14, 5 log dose, 48 h, read-out: LC50 (the source's name)
  CC50: > 25 µM

## Cc1nnc(N2CCN(c3ccccc3F)CC2)c2ccccc12 [Compound 8h, 1–(4-(2-Fluorophenyl)piperazin-1-yl)-4-methylphthalazine]
PC-3
  activity at 10 µM: 99%
HCC-2998
  activity at 10 µM: 101%
MALME-3M; Malme-3M
  activity at 10 µM: 103%
A498
  activity at 10 µM: 65.3%
SR
  activity at 10 µM: 95.1%
SNB-19
  activity at 10 µM: 99.9%
HCT-15
  activity at 10 µM: 91.8%
NCI-H226
  activity at 10 µM: 90.1%
SK-MEL-28
  activity at 10 µM: 104%
COLO 205
  activity at 10 µM: 120%
HOP-62
  activity at 10 µM: 100%
RXF 393
  activity at 10 µM: 99.8%
CAKI-1; Homo sapiens
  activity at 10 µM: 86.8%
OVCAR-8
  activity at 10 µM: 95.3%
DU-145
  activity at 10 µM: 107%
786-0
  activity at 10 µM: 90.2%
HL-60(TB)
  activity at 10 µM: 110%
M14
  activity at 10 µM: 95%
